The values that follow come from BindingDB's records for doi:10.1111/j.1432-1033.1991.tb16455.x (Georg-August-University, 1991).

Square brackets hold non-standard residues; d marks the D form. Peptide text beside a SMILES is read from it. ξ: configuration not given here. Ile(3ξ) = CCC(C)[C@H](N)C(=O)O

In this assay the target is T1, Pituitary adenylate cyclase-activating polypeptide (Rattus norvegicus, UniProt P13589).
T1 sequence (P13589 whole entry): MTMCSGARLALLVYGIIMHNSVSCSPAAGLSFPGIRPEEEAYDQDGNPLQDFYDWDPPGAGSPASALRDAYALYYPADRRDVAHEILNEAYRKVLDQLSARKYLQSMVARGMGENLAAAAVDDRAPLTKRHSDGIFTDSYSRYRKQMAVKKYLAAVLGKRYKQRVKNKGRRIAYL
`Nc1nc2c(ncn2C2OC(COP(O)(=S)OP(=O)(O)O)C(O)C2O)c(=O)[nH]1` (stereo unspecified) [NSC_196042]: the affinity corresponds to a Ki of 340 nM.
In the case of `CCC(C)[C@H](NC(=O)CNC(=O)[C@H](CC(=O)O)NC(=O)[C@H](CO)NC(=O)[C@@H](N)Cc1cnc[nH]1)C(=O)N[C@@H](Cc1ccccc1)C(=O)N[C@H](C(=O)N[C@@H](CC(=O)O)C(=O)N[C@@H](CO)C(=O)N[C@@H](Cc1ccc(O)cc1)C(=O)N[C@@H](CO)C(=O)N[C@@H](CCCN=C(N)N)C(=O)N[C@@H](Cc1ccc(O)cc1)C(=O)N[C@@H](CCCN=C(N)N)C(=O)N[C@@H](CCCCN)C(=O)N[C@@H](CCC(N)=O)C(=O)N[C@@H](CCSC)C(=O)N[C@@H](C)C(=O)N[C@H](C(=O)N[C@@H](CCCCN)C(=O)N[C@@H](CCCCN)C(=O)N[C@@H](Cc1ccc(O)cc1)C(=O)N[C@@H](CC(C)C)C(=O)N[C@@H](C)C(=O)N[C@@H](C)C(=O)N[C@H](C(=O)N[C@@H](CC(C)C)C(=O)NCC(=O)N[C@@H](CCCCN)C(=O)N[C@@H](CCCN=C(N)N)C(=O)N[C@@H](Cc1ccc(O)cc1)C(=O)N[C@@H](CCCCN)C(=O)N[C@@H](CCC(N)=O)C(=O)N[C@@H](CS)C(N)=O)C(C)C)C(C)C)[C@@H](C)O` (stereo partly specified) [PACAP(1-33,Cys34)], the inhibition constant (Ki) amounted to 6.4 nM.
`CC[C@H](C)[C@H](NC(=O)[C@H](CO)NC(=O)[C@H](CC(N)=O)NC(=O)[C@H](CC(C)C)NC(=O)[C@H](Cc1ccc(O)cc1)NC(=O)[C@H](CCCCN)NC(=O)[C@H](CCCCN)NC(=O)[C@@H](NC(=O)[C@H](C)NC(=O)[C@H](CCSC)NC(=O)[C@H](CCC(N)=O)NC(=O)[C@H](CCCCN)NC(=O)[C@H](CCCN=C(N)N)NC(=O)[C@H](CC(C)C)NC(=O)[C@H](CCCN=C(N)N)NC(=O)[C@@H](NC(=O)[C@H](Cc1ccc(O)cc1)NC(=O)[C@H](CC(N)=O)NC(=O)[C@H](CC(=O)O)NC(=O)[C@@H](NC(=O)[C@H](Cc1ccccc1)NC(=O)[C@@H](NC(=O)[C@H](C)NC(=O)[C@H](CC(=O)O)NC(=O)[C@H](CO)NC(=O)[C@@H](N)Cc1cnc[nH]1)C(C)C)[C@@H](C)O)[C@@H](C)O)C(C)C)C(=O)N[C@@H](CC(C)C)C(=O)N[C@@H](CC(N)=O)C(=O)O` [CAS_37221-79-7] came in with an inhibition constant Ki of 1000 nM.
`Nc1nc2c(ncn2C2OC(COP(=O)(O)OP(=O)(O)OP(=O)(O)S)C(O)C2O)c(=O)[nH]1` (stereo unspecified) [CAS_444121] yielded a Ki of 40 nM.
For the molecule `Nc1nc2c(ncn2[C@H]2O[C@@H](COP(=O)(O)O)[C@H](O)[C@@H]2O)c(=O)[nH]1` [NSC_6804], the Ki was greater than 10000 nM.
Take `Nc1nc2c(ncn2[C@@H]2O[C@H](COP(=O)(O)OP(=O)(O)OP(=O)(O)O)C(O)C2O)c(=O)[nH]1` (stereo partly specified) [+ 1 mM GTP]: the Ki amounted to 600 nM.
Then `CCC(C)[C@H](NC(=O)CNC(=O)[C@@H](N)CC(=O)O)C(=O)N[C@@H](Cc1ccccc1)C(=O)N[C@H](C(=O)N[C@@H](CC(=O)O)C(=O)N[C@@H](CO)C(=O)N[C@@H](Cc1ccc(O)cc1)C(=O)N[C@@H](CO)C(=O)N[C@@H](CCCN=C(N)N)C(=O)N[C@@H](Cc1ccc(O)cc1)C(=O)N[C@@H](CCCN=C(N)N)C(=O)N[C@@H](CCCCN)C(=O)N[C@@H](CCC(N)=O)C(=O)N[C@@H](CCSC)C(=O)N[C@@H](C)C(=O)N[C@H](C(=O)N[C@@H](CCCCN)C(=O)N[C@@H](CCCCN)C(=O)N[C@@H](Cc1ccc(O)cc1)C(=O)N[C@@H](CC(C)C)C(=O)N[C@@H](C)C(=O)N[C@@H](C)C(N)=O)C(C)C)[C@@H](C)O` (stereo partly specified) [PACAP(3-25)] (H-DG[Ile(3ξ)]FTDSYSRYRKQMAVKKYLAA-NH2), with 1000 nM; and `CC[C@H](C)[C@H](NC(=O)CNC(=O)[C@H](CC(=O)O)NC(=O)[C@H](CO)NC(=O)[C@@H](N)Cc1cnc[nH]1)C(=O)N[C@@H](Cc1ccccc1)C(=O)N[C@H](C(=O)N[C@@H](CC(=O)O)C(=O)N[C@@H](CO)C(=O)N[C@@H](Cc1ccc(O)cc1)C(=O)N[C@@H](CO)C(=O)N[C@@H](CCCN=C(N)N)C(=O)N[C@@H](Cc1ccc(O)cc1)C(=O)N[C@@H](CCCN=C(N)N)C(=O)N[C@@H](CCCCN)C(=O)N[C@@H](CCC(N)=O)C(=O)N[C@@H](CCSC)C(=O)N[C@@H](C)C(=O)N[C@H](C(=O)N[C@@H](CCCCN)C(=O)N[C@@H](CCCCN)C(=O)N[C@@H](Cc1ccc(O)cc1)C(=O)N[C@@H](CC(C)C)C(N)=O)C(C)C)[C@@H](C)O` [PACAP(1-23)], with 1000 nM; and `CC[C@H](C)[C@H](NC(=O)CNC(=O)[C@H](CCC(=O)O)NC(=O)[C@H](CO)NC(=O)[C@@H](N)Cc1cnc[nH]1)C(=O)N[C@@H](Cc1ccccc1)C(=O)N[C@H](C(=O)N[C@@H](CC(=O)O)C(=O)N[C@@H](CO)C(=O)N[C@@H](Cc1ccc(O)cc1)C(=O)N[C@@H](CO)C(=O)N[C@@H](CCCNC(=N)N)C(=O)N[C@@H](Cc1ccc(O)cc1)C(=O)N[C@@H](CCCNC(=N)N)C(=O)N[C@@H](CCCCN)C(=O)N[C@@H](CCC(N)=O)C(=O)N[C@@H](CCSC)C(=O)N[C@@H](C)C(=O)N[C@H](C(=O)N[C@@H](CCCCN)C(=O)N[C@@H](CCCCN)C(=O)N[C@@H](Cc1ccc(O)cc1)C(=O)N[C@@H](CC(C)C)C(=O)N[C@@H](C)C(=O)N[C@@H](C)C(=O)N[C@H](C(=O)N[C@@H](CC(C)C)C(N)=O)C(C)C)C(C)C)[C@@H](C)O` [PACAP(1-27)], with 4.7 nM.
In the case of “H-HSDGIFTDSYSRYRKQMAVKKYLNSILN-NH2 [PACAP(1-23),VIP(24-28)]”, the Ki was determined as 3.1 nM.
`CC[C@H](C)[C@H](NC(=O)CNC(=O)[C@H](CC(=O)O)NC(=O)[C@H](CO)NC(=O)[C@@H](N)Cc1cnc[nH]1)C(=O)N[C@@H](Cc1ccccc1)C(=O)N[C@H](C(=O)N[C@@H](CC(=O)O)C(=O)N[C@@H](CO)C(=O)N[C@@H](Cc1ccc(O)cc1)C(=O)N[C@@H](CO)C(=O)N[C@@H](CCCNC(=N)N)C(=O)N[C@@H](Cc1ccc(O)cc1)C(=O)N[C@@H](CCCNC(=N)N)C(=O)N[C@@H](CCCCN)C(=O)N[C@@H](CCC(N)=O)C(=O)N[C@@H](CCSC)C(=O)N[C@@H](C)C(=O)N[C@H](C(=O)N[C@@H](CCCCN)C(=O)N[C@@H](CCCCN)C(=O)N[C@@H](Cc1ccc(O)cc1)C(=O)N[C@@H](CC(C)C)C(=O)N[C@@H](C)C(=O)N[C@@H](C)C(=O)N[C@H](C(=O)N[C@@H](CC(C)C)C(=O)NCC(=O)N[C@@H](CCCCN)C(=O)N[C@@H](CCCNC(=N)N)C(=O)N[C@@H](Cc1ccc(O)cc1)C(=O)N[C@@H](CCCCN)C(=O)N[C@@H](CCC(N)=O)C(=O)N[C@@H](CCCNC(=N)N)C(=O)N[C@H](C(=O)N[C@@H](CCCCN)C(=O)N[C@@H](CC(N)=O)C(=O)N[C@@H](CCCCN)C(N)=O)C(C)C)C(C)C)C(C)C)[C@@H](C)O` [PACAP]: the affinity corresponds to a Ki of 1.9 nM. This Ki is about 1.6-fold lower than that of the molecule before.
